Laboratory results from the supplement of paper PMC10307832.

Tests used:
Experiment in all cases: relative viability (nuclei count vs DMSO), 5 days (fraction); higher = more cells survive
Doramapimod + Navitoclax = compound: Cc1ccc(-n2nc(C(C)(C)C)cc2NC(=O)Nc2ccc(OCCN3CCOCC3)c3ccccc23)cc1 [Doramapimod] + CC1(C)CCC(c2ccc(Cl)cc2)=C(CN2CCN(c3ccc(C(=O)NS(=O)(=O)c4ccc(N[C@H](CCN5CCOCC5)CSc5ccccc5)c(S(=O)(=O)C(F)(F)F)c4)cc3)CC2)C1 [Navitoclax] (partner 0.5 µM)
Summary of the method: (§1)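 A single step with final 0.05% Triton X-100, 1% formaldehyde and 1 ug/ml Hoechst fixed the cells and stained nuclei 5 days after treatment. Lung cancer cell lines in 1536-well plates had been treated by pin tool the day after seeding with one drug alone or a fixed anchor-drug dose plus five library-drug doses (not always all listed) in √10 steps, and nuclei were counted on 4× images. Relative viability is the ratio of nuclei in treated wells to nuclei in vehicle wells, taken as the median of duplicate plates.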

RAF265 + Linsitinib = compound: Cn1c(Nc2ccc(C(F)(F)F)cc2)nc2cc(Oc3ccnc(-c4ncc(C(F)(F)F)[nH]4)c3)ccc21 [RAF265] + C[C@]1(O)C[C@@H](c2nc(-c3ccc4ccc(-c5ccccc5)nc4c3)c3c(N)nccn32)C1 [Linsitinib] (partner 1 µM)
Summary of the method: as §1

RAF265 + Pemetrexed = compound: Cn1c(Nc2ccc(C(F)(F)F)cc2)nc2cc(Oc3ccnc(-c4ncc(C(F)(F)F)[nH]4)c3)ccc21 [RAF265] + Nc1nc2[nH]cc(CCc3ccc(C(=O)N[C@@H](CCC(=O)O)C(=O)O)cc3)c2c(=O)[nH]1 [Pemetrexed] (partner 0.2 µM)
Summary of the method: as §1

RAF265 + Decitabine = compound: Cn1c(Nc2ccc(C(F)(F)F)cc2)nc2cc(Oc3ccnc(-c4ncc(C(F)(F)F)[nH]4)c3)ccc21 [RAF265] + Nc1ncn([C@H]2C[C@H](O)[C@@H](CO)O2)c(=O)n1 [Decitabine] (partner 2 µM)
Summary of the method: as §1

## UMC-11
Doramapimod + Navitoclax; first compound 0.02 µM
  relative viability: 0.304
Doramapimod + Navitoclax; first compound 0.06325 µM
  relative viability: 0.275
Doramapimod + Navitoclax; first compound 0.2 µM
  relative viability: 0.323
Doramapimod + Navitoclax; first compound 0.6325 µM
  relative viability: 0.344
Doramapimod + Navitoclax; first compound 2 µM
  relative viability: 0.271
RAF265 + Linsitinib; first compound 0.01 µM
  relative viability: 1
RAF265 + Linsitinib; first compound 0.03162 µM
  relative viability: 0.993
RAF265 + Linsitinib; first compound 0.1 µM
  relative viability: 0.953
RAF265 + Linsitinib; first compound 0.3162 µM
  relative viability: 0.986
RAF265 + Linsitinib; first compound 1 µM
  relative viability: 0.973
RAF265 + Pemetrexed; first compound 0.01 µM
  relative viability: 0.689
RAF265 + Pemetrexed; first compound 0.03162 µM
  relative viability: 0.854
RAF265 + Pemetrexed; first compound 0.1 µM
  relative viability: 0.764
RAF265 + Pemetrexed; first compound 0.3162 µM
  relative viability: 0.761
RAF265 + Pemetrexed; first compound 1 µM
  relative viability: 0.639
RAF265 + Decitabine; first compound 0.01 µM
  relative viability: 0.621
RAF265 + Decitabine; first compound 0.03162 µM
  relative viability: 0.404
RAF265 + Decitabine; first compound 0.1 µM
  relative viability: 0.621
RAF265 + Decitabine; first compound 0.3162 µM
  relative viability: 0.604
RAF265 + Decitabine; first compound 1 µM
  relative viability: 0.363
